Among the data in US20190016703A1, “BIFUNCTIONAL COMPOUNDS FOR HER3 DEGRADATION AND METHODS OF USE” (Dana-Farber Cancer Institute, Inc., priority 2015, published 2019) are Her3 degradation, IC50 and EC50 values, retold here.

As a reminder, the IC50 is the concentration at which inhibition is half-maximal. For orientation: EC50 means the concentration needed to bring the measured effect to its halfway point.

The target in assay [1] is T1, Her3 (Homo sapiens, UniProt P21860). Nature of the assay: Her3 protein degradation by Western blot (immunoblotting). The settings on record: PC9-GR4 or Ovacar 8 cell lines, 2 μM, 4 hours and 8 hours. The format is cell-based. More on the design: endogenous in cells; host or cells: PC9-GR4; Ovacar 8; key: +: Her3 protein was degraded; −: Her3 protein was not degraded. How it is done:
Cells are seeded at the desired density the day before treatment starts with bifunctional compounds of the application at various concentration. After 4 to 12 hrs, cells are washed with buffer and lysed. The lysates are centrifuged and the supernatant is collected. Protein concentrations are measured using a protein assay kit, such as the BCA protein assay kit, Pierce, catalog number 23225) and normalized. Samples are run on a SDS-PAGE gel, and transferred to a PVDF membrane. The PVDF membrane is probed with the appropriate antibody.
Her3 protein degradation was assessed via Western blots after treatment of PC9-GR4 cell lines or Ovacar 8 cell lines with 2 μM of representative compounds for 4 hours and 8 hours.
Cells were seeded at a density of 4×10̂5 per 6 cm plate the day before treatment started with representative compounds of the application at the indicated concentration. After 4 to 12 hrs, cells were washed with phosphate-buffered saline. Lysis buffer included 50 mM Tris-HCl, […], 150 mM NaCl, 1% NP-40, and 5 mM EDTA, pH 7.4+/−0.2, Roche PhosSTOP phosphatase inhibitor cocktail tablets and Roche Complete Protease inhibitor cocktail tablets. Cell lysis was accomplished by addition of lysis buffer for 5-10 min on ice. Lysates were centrifuged in a microcentrifuge at 14,000 r.p.m. for 15 min at 4° C., and the supernatant was collected. Protein concentrations were measured using BCA protein assay kit (Pierce, catalog number 23225) and normalized. Samples were run on a 4%-12% SDS-PAGE gel at 120 V. After transfer, the PVDF membrane was probed with anti-Her3 antibody, Santa Cruz, catalog number sc-285 at 1:1000 dilution.

For assay [2], the target named is T1, Her3. The experiment in a line: LanthaScreen Eu kinase binding assay. More on the design: purchased Life Technologies. The following applies: read-out: Binding affinities (IC50). Here is the method: Lantha screening is performed by following the method reported in Nature Chemical Biology, 10, 1006-1012 (2014).
Binding affinities (IC 50) of representative compounds were measured by the Life Technologies LanthaScreen Eu kinase binding assay, which was previously reported (Xie T. et al., Nat. Chew. Biol. 2014, 10, 1006-1012).
Lantha screening was performed by following the method reported in Nature Chemical Biology, 10, 1006-1012 (2014).
In general terms: TR-FRET usually uses a lanthanide donor and a delayed reading to cut background.

A further assay has as its system 826-GR6. Nature of the assay: Anti-proliferation assay (MTS cell viability). The format is cell-based. The settings on record: 72 h, 826-GR6 cells, 3 d incubation, read-out: Cell lines (EC50, μM) 826-GR6. How it is done:
Cells are seeded and incubated for 3 d after bifunctional compounds of the application are added. Cell viability is measured via MTS Assay. This assay uses a colorimetric method to determine the number of viable cells based on the bioreduction of MTS by cells to a formazan product that is soluble in cell culture medium and can be detected spectrophotometrically. In a typical experiment, the supernatant is removed and replaced by 100 μl of RPMI media supplemented with MTS reagent and PMS. The plates are measured with Perkin Elmer EnVision after reaching an optical density (OD) of 1.0-2.0 at a wavelength of 490 nm. The cell numbers are normalized compared to DMSO control, and the EC50 values are calculated using GraphPad Prism.
Five cell lines, PC9-GR4, 826-GR6, Ovacar 8, A549, and Ovacar 5 were grown and treated with representative compounds. Viability of the cells after the treatment was assessed by MTS assay.
The anti-proliferation assay was carried out using 96-well clear bottom plates. […] Cell viability was measured via MTS Assay. This assay uses a colorimetric method to determine the number of viable cells based on the bioreduction of MTS by cells to a formazan product that is soluble in cell culture medium and can be detected spectrophotometrically. […] The plates were measured with Perkin Elmer EnVision after reaching an optical density (OD) of 1.0-2.0 at a wavelength of 490 nm. […]

T1 sequence (P21860 20-1342): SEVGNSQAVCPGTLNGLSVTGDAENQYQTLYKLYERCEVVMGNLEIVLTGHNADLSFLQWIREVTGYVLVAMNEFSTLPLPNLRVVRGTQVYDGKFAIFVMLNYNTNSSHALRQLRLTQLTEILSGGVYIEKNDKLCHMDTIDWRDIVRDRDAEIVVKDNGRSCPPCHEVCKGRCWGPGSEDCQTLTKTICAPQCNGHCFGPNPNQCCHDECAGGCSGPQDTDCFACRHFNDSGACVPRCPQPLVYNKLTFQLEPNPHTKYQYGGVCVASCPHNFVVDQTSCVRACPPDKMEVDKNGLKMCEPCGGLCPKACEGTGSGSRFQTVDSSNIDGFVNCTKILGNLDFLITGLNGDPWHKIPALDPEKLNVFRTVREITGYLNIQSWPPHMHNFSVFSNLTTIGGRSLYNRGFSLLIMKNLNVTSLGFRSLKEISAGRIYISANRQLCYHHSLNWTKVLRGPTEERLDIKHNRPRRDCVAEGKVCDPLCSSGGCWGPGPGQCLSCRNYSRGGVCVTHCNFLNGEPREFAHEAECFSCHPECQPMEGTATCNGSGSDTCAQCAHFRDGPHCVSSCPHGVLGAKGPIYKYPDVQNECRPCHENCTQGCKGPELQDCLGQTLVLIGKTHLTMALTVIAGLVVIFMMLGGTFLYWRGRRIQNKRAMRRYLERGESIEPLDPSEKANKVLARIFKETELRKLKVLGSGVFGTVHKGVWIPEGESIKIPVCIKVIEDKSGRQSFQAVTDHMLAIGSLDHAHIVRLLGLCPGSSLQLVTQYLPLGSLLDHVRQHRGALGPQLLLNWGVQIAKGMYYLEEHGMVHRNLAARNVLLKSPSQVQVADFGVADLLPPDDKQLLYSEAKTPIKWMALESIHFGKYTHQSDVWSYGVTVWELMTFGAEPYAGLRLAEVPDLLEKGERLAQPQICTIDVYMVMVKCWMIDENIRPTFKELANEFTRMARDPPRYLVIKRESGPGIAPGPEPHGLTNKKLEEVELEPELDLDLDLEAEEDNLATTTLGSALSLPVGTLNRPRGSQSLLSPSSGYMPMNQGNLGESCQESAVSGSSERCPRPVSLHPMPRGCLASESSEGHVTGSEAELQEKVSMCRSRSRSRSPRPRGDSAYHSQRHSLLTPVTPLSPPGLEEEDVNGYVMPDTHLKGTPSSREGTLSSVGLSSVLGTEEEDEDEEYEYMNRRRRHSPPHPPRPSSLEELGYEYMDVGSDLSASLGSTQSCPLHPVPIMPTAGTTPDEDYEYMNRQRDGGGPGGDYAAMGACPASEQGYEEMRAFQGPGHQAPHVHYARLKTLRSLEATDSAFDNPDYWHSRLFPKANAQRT

On to `COc1cc2ncnc(Nc3cccc(Cl)c3F)c2cc1OC1CCN(CC(=O)NCCOCCOCCOCCNc2cccc3c2C(=O)N(C2CCC(=O)NC2=O)C3=O)CC1` (stereo not drawn) [Compound CY11], for which, at Her3 [1], the Her3 degradation result was “−”.
Turning to `CCOc1cc2ncc(C#N)c(Nc3ccc(OCc4ccccn4)c(Cl)c3)c2cc1NC(=O)CCOCCOCCOCCNc1cccc2c1C(=O)N(C1CCC(=O)NC1=O)C2=O` (stereo not drawn) [Compound CY4], on Her3 [1], the Her3 degradation result is listed as “−”.
As for `COc1cc2ncnc(Nc3cccc(Cl)c3F)c2cc1OC1CCN(CC(=O)NCCOCCOCCNc2cccc3c2C(=O)N(C2CCC(=O)NC2=O)C3=O)CC1` (stereo not drawn) [Compound CY10], the Her3 degradation result on Her3 [1] is recorded as “−”.
With `COc1cc(Nc2c(C#N)cnc3cc(OCCCN4CCN(CCOCCOCCOCCNc5cccc6c5C(=O)N(C5CCC(=O)NC5=O)C6=O)CC4)c(OC)cc23)c(Cl)cc1Cl` (stereo not drawn) [Compound CY7], the Her3 degradation entry on Her3 [1] is listed as “−”. On Her3 [2], the IC50 is less than 0.01 µM. Also, the 50% effective concentration (EC50) in the assay on 826-GR6 was in the range of 5 to 15 µM.
Consider `COc1cc(Nc2c(C#N)cnc3cc(OCCCOCCOCCOCCNc4cccc5c4C(=O)N(C4CCC(=O)NC4=O)C5=O)c(OC)cc23)c(Cl)cc1Cl` (stereo not drawn) [Compound CY8], for which, on Her3 [1], the Her3 degradation result was “−”.
For `COc1cc(Nc2c(C#N)cnc3cc(OCCCN4CCN(CC(=O)NCCOCCOCCOCCNC(=O)COc5cccc6c5C(=O)N(C5CCC(=O)NC5=O)C6=O)CC4)c(OC)cc23)c(Cl)cc1Cl` (stereo not drawn) [Compound CY1], the Her3 degradation entry at Her3 [1] is listed as “−”. Besides, on Her3 [2], the IC50 is less than 0.01 µM.
As to `COc1cc(Nc2c(C#N)cnc3cc(OCCCN4CCN(CCOCCOCCNc5cccc6c5C(=O)N(C5CCC(=O)NC5=O)C6=O)CC4)c(OC)cc23)c(Cl)cc1Cl` (stereo not drawn) [Compound CY6], on Her3 [1], the Her3 degradation result is reported as “−”. Moreover, the IC50 on Her3 [2] is less than 0.01 µM. For the same compound, the concentration giving a half-maximal response (EC50) in the assay with 826-GR6 was 5 to 15 µM.
With `CCOc1cc2ncc(C#N)c(Nc3ccc(OCc4ccccn4)c(Cl)c3)c2cc1NC(=O)CCOCCOCCNc1cccc2c1C(=O)N(C1CCC(=O)NC1=O)C2=O` (stereo not drawn) [Compound CY3], the Her3 degradation entry on Her3 [1] was “−”.
As for `CCOc1cc2ncc(C#N)c(Nc3ccc(OCc4ccccn4)c(Cl)c3)c2cc1NC(=O)CCOCCOCCOCCOCCOCCNc1cccc2c1C(=O)N(C1CCC(=O)NC1=O)C2=O` (stereo not drawn) [Compound CY5], the Her3 degradation result at Her3 [1] was “−”.
Consider `COc1cc(Nc2c(C#N)cnc3cc(OCCCOCCOCCOCCOCCNc4cccc5c4C(=O)N(C4CCC(=O)NC4=O)C5=O)c(OC)cc23)c(Cl)cc1Cl` (stereo not drawn) [Compound CY9], for which the Her3 degradation entry at Her3 [1] is “+”. Further, on Her3 [2], the concentration for half-maximal inhibition (IC50) was 0.01 to 0.1 µM.
Regarding `COc1cc(Nc2c(C#N)cnc3cc(OCCCN4CCN(C(=O)CCCNC(=O)COc5cccc6c5C(=O)N(C5CCC(=O)NC5=O)C6=O)CC4)c(OC)cc23)c(Cl)cc1Cl` (stereo not drawn) [Compound CY2], on Her3 [1], the Her3 degradation result is “−”. Moreover, at Her3 [2], the IC50 was less than 0.01 µM.
